Target: human M4 receptor (Homo sapiens (Human), UniProt P08173)
Assay: Radioligand (tritiated N-methylscopolamine) binding assay, M4
Details: Ki against the M4 receptor; membranes from CHO cells expressing human M4; tritiated N-methylscopolamine 1.5 nM; read-out: Ki
Outline: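 Compounds were tested at twelve concentrations ranging from 10 μM to […] against 1.5 nM radioligand on CHO cell membranes expressing each subtype. Incubation lasts 90 min at 37 °C in HEPES-buffered saline with Mg2+ and EDTA, pH 7.4, and filtration then separates bound radioligand.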

Sequence of human M4 receptor (P08173 whole entry): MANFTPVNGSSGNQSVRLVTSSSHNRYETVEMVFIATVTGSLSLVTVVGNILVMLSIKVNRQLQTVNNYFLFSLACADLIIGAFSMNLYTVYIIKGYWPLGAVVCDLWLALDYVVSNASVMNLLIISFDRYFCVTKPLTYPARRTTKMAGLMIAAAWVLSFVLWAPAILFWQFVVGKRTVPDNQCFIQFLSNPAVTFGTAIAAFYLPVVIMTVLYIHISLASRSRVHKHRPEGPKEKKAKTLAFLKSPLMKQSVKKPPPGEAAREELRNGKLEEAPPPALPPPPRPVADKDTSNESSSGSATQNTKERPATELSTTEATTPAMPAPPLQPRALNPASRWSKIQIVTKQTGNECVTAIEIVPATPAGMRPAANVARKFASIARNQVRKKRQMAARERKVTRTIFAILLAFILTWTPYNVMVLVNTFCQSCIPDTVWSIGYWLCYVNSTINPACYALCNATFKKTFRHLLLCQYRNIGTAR

O=C(NCCC1CCN(Cc2ccccc2)CC1)c1ccc(-c2cccs2)cc1 [9-55, N-[2-(1-benzylpiperidin-4-yl)ethyl]-4-(thiophen-2-yl)benzamide]
Ki: 100 to 1000 nM

O=C(NCCC1CCN(Cc2ccccc2)CC1)c1ccc(SC(F)(F)F)cc1 [9-56, N-[2-(1-benzylpiperidin-4-yl)ethyl]-4-[(trifluoromethyl)sulfanyl]benzamide]
Ki: 100 to 1000 nM

Cc1nc(-c2ccc(F)nc2)sc1C(=O)NCCC1CCN(Cc2ccccc2)CC1 [9-57, N-[2-(1-benzylpiperidin-4-yl)ethyl]-2-(6-fluoropyridin-3-yl)-4-methyl-1,3-thiazole-5-carboxamide]
Ki: 100 to 1000 nM

O=C(C1CCN(c2ncc(C(F)(F)F)cc2Cl)CC1)N(CCC1CCN(Cc2ccccc2)CC1)C1CC1 [9-58, N-[2-(1-benzylpiperidin-4-yl)ethyl]-1-[3-chloro-5(trifluoromethyl)pyridin-2-yl]-N-cyclopropylpiperidine-4-carboxamide]
Ki: 100 to 1000 nM

COc1ccc(-c2cc(C(F)(F)F)n3nc(C(=O)NCCC4CCN(Cc5ccccc5)CC4)cc3n2)cc1 [9-59, N-[2-(1-benzylpiperidin-4-yl)ethyl]-5-(4-methoxyphenyl)-7-(trifluoromethyl)pyrazolo[1,5-a]pyrimidine-2-carboxamide]
Ki: 100 to 1000 nM

N#Cc1cc2ccccc2nc1-c1cc(C(=O)NCCC2CCN(Cc3ccccc3)CC2)ccc1Cl [9-60, N-[2-(1-benzylpiperidin-4-yl)ethyl]-4-chloro-3-(3-cyanoquinolin-2-yl)benzamide]
Ki: 100 to 1000 nM

Cc1[nH]c(-c2ccc(Cl)cc2Cl)nc1C(=O)NCCC1CCN(Cc2ccccc2)CC1 [9-61, N-[2-(1-benzylpiperidin-4-yl)ethyl]-2-(2,4-dichlorophenyl)-5-methyl-1H-imidazole-4-carboxamide]
Ki: 100 to 1000 nM

O=C(NCC1CCN(Cc2ccccc2)CC1)C1CCN(c2ncc(C(F)(F)F)cc2Cl)CC1 [9-65, N-[(1-benzylpiperidin-4-yl)methyl]-1-[3-chloro-5-(trifluoromethyl)pyridin-2-yl]piperidine-4-carboxamide]
Ki: 100 to 1000 nM

O=C(NCC[C@@H]1CCN(Cc2ccccc2)C1)C1CCN(c2ccc(OC(F)(F)F)cc2)CC1 [9-66, N-{2-[(3R)-1-benzylpyrrolidin-3-yl]ethyl}-1-[4-(trifluoromethoxy)phenyl]piperidine-4-carboxamide]
Ki: 100 to 1000 nM

Cc1cc(Cl)c(-c2cc(C(=O)NCCC3CCN(Cc4ccccc4)CC3)ccc2Cl)cn1 [9-67, N-[2-(1-benzylpiperidin-4-yl)ethyl]-4-chloro-3-(4-chloro-6-methylpyridin-3-yl)benzamide]
Ki: 100 to 1000 nM

O=C(NCCN1CCC(Cc2ccccc2)CC1)c1ccn2cc(-c3ccc(OC(F)(F)F)cc3)nc2c1 [9-68, N-[2-(4-benzylpiperidin-1-yl)ethyl]-2-[4-(trifluoromethoxy)phenyl]imidazo[1,2-a]pyridine-7-carboxamide]
Ki: 100 to 1000 nM

O=C(NCCC1CCN(Cc2ccccc2)CC1)c1ccc(-c2ccc(O)cc2)cc1 [9-69, N-[2-(1-benzylpiperidin-4-yl)ethyl]-4-(4-hydroxyphenyl)benzamide]
Ki: 100 to 1000 nM

Cc1nc(C(=O)NCCC2CCN(Cc3ccccc3)CC2)cn1-c1ccc(C#N)cn1 [9-74, N-[2-(1-benzylpiperidin-4-yl)ethyl]-1-(5-cyanopyridin-2-yl)-2-methyl-1H-imidazole-4-carboxamide]
Ki: 100 to 1000 nM

N#Cc1ccc(-n2cnc(C(=O)NCCC3CCN(Cc4ccccc4)CC3)c2)nc1 [9-75, N-[2-(1-benzylpiperidin-4-yl)ethyl]-1-(5-cyanopyridin-2-yl)-1H-imidazole-4-carboxamide]
Ki: 100 to 1000 nM

O=C(NCCC1CCN(Cc2ccccc2)CC1)C1CCN(c2ccc(OC(F)(F)F)cn2)CC1 [10-1, N-[2-(1-benzylpiperidin-4-yl)ethyl]-1-[5-(trifluoromethoxy)pyridin-2-yl]piperidine-4-carboxamide]
Ki: 10 to 100 nM

COc1ccc(N2CCC(C(=O)NCCC3CCN(Cc4ccccc4)CC3)CC2)cc1C#N [10-2, N-[2-(1-benzylpiperidin-4-yl)ethyl]-1-(3-cyano-4-methoxyphenyl)piperidine-4-carboxamide]
Ki: 100 to 1000 nM

O=C(NCCC1CCN(Cc2ccccc2)CC1)C1CCN(c2ccccc2)CC1 [10-3, N-[2-(1-benzylpiperidin-4-yl)ethyl]-1-phenylpiperidine-4-carboxamide]
Ki: 100 to 1000 nM

CC1(C(=O)NCCC2CCN(Cc3ccccc3)CC2)CCN(c2ccccc2OC(F)(F)F)CC1 [10-4, N-[2-(1-benzylpiperidin-4-yl)ethyl]-4-methyl-1-[2-(trifluoromethoxy)phenyl]piperidine-4-carboxamide]
Ki: 100 to 1000 nM

N#Cc1cncc(N2CCC(C(=O)NCCC3CCN(Cc4ccccc4)CC3)CC2)c1 [10-15, N-[2-(1-benzylpiperidin-4-yl)ethyl]-1-(5-cyanopyridin-3-yl)piperidine-4-carboxamide]
Ki: 100 to 1000 nM

CC1CN(c2ccccc2OC(F)(F)F)CCC1C(=O)NCCC1CCN(Cc2ccccc2)CC1 (centres unmarked) [10-16, N-[2-(1-benzylpiperidin-4-yl)ethyl]-3-methyl-1-[2-(trifluoromethoxy)phenyl]piperidine-4-carboxamide]
Ki: 100 to 1000 nM

O=C(NCCC1CCN(Cc2ccccc2)CC1)C1(F)CCN(c2ccccc2OC(F)(F)F)CC1 [10-17, N-[2-(1-benzylpiperidin-4-yl)ethyl]-4-fluoro-1-[2-(trifluoromethoxy)phenyl]piperidine-4-carboxamide]
Ki: 100 to 1000 nM

O=C(NCCC1CCN(Cc2ccccc2)CC1)C1CCN(c2ccc(C(F)(F)F)cn2)CC1 [10-24, N-[2-(1-benzylpiperidin-4-yl)ethyl]-1-[5-(trifluoromethyl)pyridin-2-yl]piperidine-4-carboxamide]
Ki: 10 to 100 nM

CC1(C(=O)NCCC2CCN(Cc3ccccc3)CC2)CCN(c2cccc(OC(F)(F)F)c2)CC1 [10-25, N-[2-(1-benzylpiperidin-4-yl)ethyl]-4-methyl-1-[3-(trifluoromethoxy)phenyl]piperidine-4-carboxamide]
Ki: 10 to 100 nM

O=C(CC1CCN(Cc2ccccc2)CC1)NCC1CCN(c2cccc(OC(F)(F)F)c2)CC1 [10-26, 2-(1-benzylpiperidin-4-yl)-N-({1-[3-(trifluoromethoxy)phenyl]piperidin-4-yl}methyl)acetamide]
Ki: 100 to 1000 nM

O=C(NCCC1CCN(Cc2ccccc2)CC1)C1CCN(c2ccc(Cl)nc2)CC1 [10-27, N-[2-(1-benzylpiperidin-4-yl)ethyl]-1-(6-chloropyridin-3-yl)piperidine-4-carboxamide]
Ki: 100 to 1000 nM

COc1ccc(N2CCC(C(=O)NCCC3CCN(Cc4ccccc4)CC3)CC2)nc1 [10-28, N-[2-(1-benzylpiperidin-4-yl)ethyl]-1-(5-methoxypyridin-2-yl)piperidine-4-carboxamide]
Ki: 100 to 1000 nM

COc1cc(OC(F)(F)F)cc(N2CCC(C(=O)NCCC3CCN(Cc4ccccc4)CC3)CC2)c1 [10-29, N-[2-(1-benzylpiperidin-4-yl)ethyl]-1-[3-methoxy-5-(trifluoromethoxy)phenyl]piperidine-4-carboxamide]
Ki: 10 to 100 nM

O=C(NCCC1CCN(Cc2ccccc2)CC1)C1CCN(c2nccc(C(F)(F)F)n2)CC1 [10-30, N-[2-(1-benzylpiperidin-4-yl)ethyl]-1-[4-(trifluoromethyl)pyrimidin-2-yl]piperidine-4-carboxamide]
Ki: 10 to 100 nM

CC1(C(=O)NCCC2CCN(Cc3ccccc3)CC2)CCN(c2ccc(OC(F)(F)F)cc2)CC1 [10-31, N-[2-(1-benzylpiperidin-4-yl)ethyl]-4-methyl-1-[4-(trifluoromethoxy)phenyl]piperidine-4-carboxamide]
Ki: 10 to 100 nM

O=C(NCCC1CCN(Cc2ccccc2)CC1)C1CCN(c2cc(C(F)(F)F)ccn2)CC1 [10-32, N-[2-(1-benzylpiperidin-4-yl)ethyl]-1-[4-(trifluoromethyl)pyridin-2-yl]piperidine-4-carboxamide]
Ki: 10 to 100 nM

COc1ccc(N2CCC(C(=O)NCCC3CCN(Cc4ccccc4)CC3)CC2)cc1OC(F)(F)F [10-33, N-[2-(1-benzylpiperidin-4-yl)ethyl]-1-[4-methoxy-3-(trifluoromethoxy)phenyl]piperidine-4-carboxamide]
Ki: 10 to 100 nM

O=C(NCCC1CCN(Cc2ccccc2)CC1)C1CCN(c2ccc(OC(F)(F)F)nc2)CC1 [10-34, N-[2-(1-benzylpiperidin-4-yl)ethyl]-1-[6-(trifluoromethoxy)pyridin-3-yl]piperidine-4-carboxamide]
Ki: 10 to 100 nM

O=C(NCCC1CCN(Cc2ccccc2)CC1)C1CCN(c2ccc(F)cc2)CC1 [10-35, N-[2-(1-benzylpiperidin-4-yl)ethyl]-1-(4-fluorophenyl)piperidine-4-carboxamide]
Ki: 10 to 100 nM

N#Cc1cc(N2CCC(O)(C(=O)NCCC3CCN(Cc4ccccc4)CC3)CC2)ccc1OC(F)(F)F [10-36, N-[2-(1-benzylpiperidin-4-yl)ethyl]-1-[3-cyano-4-(trifluoromethoxy)phenyl]-4-hydroxypiperidine-4-carboxamide]
Ki: 10 to 100 nM

O=C(NCCC1CCN(Cc2ccccc2)CC1)C1CCN(c2ccc(OC(F)(F)F)cc2F)CC1 [10-37, N-[2-(1-benzylpiperidin-4-yl)ethyl]-1-[2-fluoro-4-(trifluoromethoxy)phenyl]piperidine-4-carboxamide]
Ki: 10 to 100 nM

COC1(C(=O)NCCC2CCN(Cc3ccccc3)CC2)CCN(c2ccc(OC(F)(F)F)cc2)CC1 [10-38, N-[2-(1-benzylpiperidin-4-yl)ethyl]-4-methoxy-1-[4-(trifluoromethoxy)phenyl]piperidine-4-carboxamide]
Ki: 10 to 100 nM

COc1ccc(N2CCC(C(=O)NCCC3CCN(Cc4ccccc4)CC3)CC2)cc1F [10-39, N-[2-(1-benzylpiperidin-4-yl)ethyl]-1-(3-fluoro-4-methoxyphenyl)piperidine-4-carboxamide]
Ki: 10 to 100 nM

O=C(NCCC1CCN(Cc2ccccc2)CC1)C1(O)CCN(c2cc(F)c(F)c(F)c2)CC1 [10-40, N-[2-(1-benzylpiperidin-4-yl)ethyl]-4-hydroxy-1-(3,4,5-trifluorophenyl)piperidine-4-carboxamide]
Ki: 10 to 100 nM

Reference: US11033539B2, “Compounds of formulas (VII), (VIII), (IX), (XI), (XII), (XIII), and (XIV) as muscarinic receptor 4(M4) antagonists for treating neurological diseases” (Neurocrine Biosciences, Inc., priority 2015, dated 2021)
